The values below are quoted from earlier work in patent US10206404B2, “Disinfectant” (Saban Ventures Pty Limited, priority 2012, dated 2019).

For the series the following is noted: unbuffered peroxyacetic acid, regardless of how it is produced.

As for `CC(=O)OO` [peroxyacetic acid], the pH entry is “around 2.8”.
